Reference: ChEMBL document CHEMBL3856190, “Novel spirothiazamenthane inhibitors of the influenza A M2 proton channel” (Eur J Med Chem, 2016)
Activity calls are given as the source filed them. The rule behind the calls is not given here.

Experiments:
[1] = Inhibition of Influenza A virus A/udorn/72(H3N2) wild type M2 proton channel expressed in yeast assessed as growth restoration measured after 44 hrs by turbidometric assay; design: species or system Influenza A virus (A/udorn/1972(H3N2))
MDCK [2] = assay: Antiviral activity against amantadine-sensitive Influenza A virus A/Hong Kong/1/68(H3N2) infected in MDCK cells assessed as protection from virus-induced cell death at 1 uM measured after 72 hrs by MTT assay; format: functional, cell-based; conditions: Influenza A virus (A/Hong Kong/1/1968(H3N2))
[3] = Cytotoxicity against MDCK cells at 3 uM measured after 72 hrs by MTT assay; format: toxicity, cell-based, Canis lupus familiaris; conditions: dog
[4] = Antiviral activity against Influenza A virus A/Puerto Rico/8/34 expressing wild type M2 proton channel infected in MDCK cells assessed as inhibition of viral replication measured after 10 hrs by miniplaque assay; format: functional, cell-based, Influenza A virus (A/Puerto Rico/8/1934(H1N1))
[5] = Antiviral activity against Influenza A virus A/Puerto Rico/8/34 expressing wild type M2 proton channel infected in MDCK cells assessed as inhibition of viral replication at >= 0.8 uM measured after 10 hrs by miniplaque assay; format: functional, Influenza A virus (A/Puerto Rico/8/1934(H1N1))
[6] = Cytotoxicity against yeast cells assessed as growth inhibition at 100 uM after 44 hrs by turbidometric assay; format: toxicity, cell-based; conditions: saccharomyces cerevisiae
[7] = Cytotoxicity against yeast cells assessed as growth inhibition after 44 hrs by turbidometric assay; format: toxicity, cell-based; conditions: Saccharomyces cerevisiae
MDCK [8] = assay: Antiviral activity against Influenza A virus A/Puerto Rico/8/34 expressing wild type M2 proton channel infected MDCK cells assessed as inhibition of viral replication at 20 to 100 uM measured after 10 hrs by miniplaque assay; format: functional, cell-based; conditions: Influenza A virus (A/Puerto Rico/8/1934(H1N1))
[9] = Cytotoxicity against MDCK cells assessed as reduction in cell viability at 100 uM; format: toxicity, cell-based, Canis lupus familiaris; conditions: dog

Row | Compound | EC50 [1] | Activity [6] | IC50 at 44 h [7] | other results
1 | NC12CC3CC(CC(C3)C1)C2 [AMANTADINE] | 0.1 µM |  |  | Activity (MDCK [2]): Active; Activity [3]: Non-Toxic; EC50 [4]: 0.04 µM; inhibition (INH) [5]: >90%
2 | CC1(C)N=C(NCCN2CCCC2)S[C@]12CC[C@@H](C)CC2 | 8 µM | Non-Toxic |  | 
3 | CC1(C)N=C(NCCNCc2ccccc2)S[C@]12CC[C@@H](C)CC2 |  |  | 100 µM | 
4 | CC1(C)N=C(NCc2ccco2)S[C@]12CC[C@@H](C)CC2 |  |  | > 30 µM | 
5 | CN1CCN(C2=NC(C)(C)[C@]3(CC[C@H](C)CC3)S2)CC1 | > 100 µM | Non-Toxic |  | 
6 | CC1(C)N=C(NCCc2ccncc2)S[C@]12CC[C@@H](C)CC2 | > 100 µM | Non-Toxic |  | 
7 | CC(C)N1CCN(CCNC2=NC(C)(C)[C@]3(CC[C@H](C)CC3)S2)CC1 | 30 µM | Non-Toxic |  | 
8 | CC1(C)N=C(NCCN2CCOCC2)S[C@]12CC[C@@H](C)CC2 | > 100 µM | Non-Toxic |  | 
9 | CC1(C)N=C(NCCN2CCN(CCO)CC2)S[C@]12CC[C@@H](C)CC2 | 50 µM | Non-Toxic |  | 
10 | CC1(C)N=C(NCc2ccncc2)S[C@]12CC[C@@H](C)CC2 | 2 µM | Non-Toxic |  | 
11 | CC1(C)N=C(NCCN2CCN(Cc3ccccc3)CC2)S[C@]12CC[C@@H](C)CC2 | 0.6 µM |  | > 30 µM | inhibition (MDCK [8]): Active; Activity [9]: Toxic
12 | CC1(C)N=C(NCc2ccc3c(c2)OCO3)S[C@]12CC[C@@H](C)CC2 |  |  | > 30 µM | 
13 | COc1ccc(CNC2=NC(C)(C)[C@]3(CC[C@H](C)CC3)S2)cc1F |  |  | 100 µM | 
14 | CC1(C)N=C(NCc2cccc(O)c2)S[C@]12CC[C@@H](C)CC2 | > 40 µM | Non-Toxic |  | 
15 | CC1(C)N=C(NCCc2cccnc2)S[C@]12CC[C@@H](C)CC2 | 0.9 µM | Non-Toxic |  | 
16 | CC1(C)N=C(NCCn2cccc2)S[C@]12CC[C@@H](C)CC2 |  |  | 100 µM | 
17 | CC1(C)N=C(NCc2cc(-c3ccccc3)on2)S[C@]12CC[C@@H](C)CC2 |  |  | 10 µM | 
18 | CN1CCN(CCNC2=NC(C)(C)[C@]3(CC[C@H](C)CC3)S2)CC1 | 3 µM | Non-Toxic |  | inhibition (MDCK [8]): Active
19 | CC1(C)N=C(NCc2ccc(F)cc2)S[C@]12CC[C@@H](C)CC2 |  |  | 30 µM | 
20 | COc1ccccc1CNC1=NC(C)(C)[C@]2(CC[C@H](C)CC2)S1 |  |  | 10 µM | 
21 | CC1(C)N=C(N2CCCCC2)S[C@]12CC[C@@H](C)CC2 | 10 µM | Non-Toxic |  | 
22 | COc1ccc(C(=O)NC2=NC(C)(C)[C@]3(CC[C@H](C)CC3)S2)cc1 |  |  | 10 µM | 
23 | COc1ccc(C(=O)NC2=NC(C)(C)[C@]3(CC[C@H](C)CC3)S2)c(OC)c1 |  |  | 3 µM | 

Row | Compound | EC50 [1] | Activity [6] | IC50 at 44 h [7] | other results
24 | CC1(C)N=C(NCc2ccccc2)S[C@]12CC[C@@H](C)CC2 |  |  | 10 µM | 
25 | CCN1CCN(CCNC2=NC(C)(C)[C@]3(CC[C@H](C)CC3)S2)CC1 | > 30 µM |  | 100 µM | 
26 | COc1ccc(CNC2=NC(C)(C)[C@]3(CC[C@H](C)CC3)S2)cc1OC |  | Non-Toxic |  | 
27 | COc1cccc(CNC2=NC(C)(C)[C@]3(CC[C@H](C)CC3)S2)c1 |  |  | 30 µM | 
28 | CN(C)CCNC1=NC(C)(C)[C@]2(CC[C@H](C)CC2)S1 | 100 µM | Non-Toxic |  | 
29 | CC1(C)N=C(NCCN2CCN(CC3CCCCC3)CC2)S[C@]12CC[C@@H](C)CC2 | 20 µM | Non-Toxic |  | 
30 | CCCCN1CCN(CCNC2=NC(C)(C)[C@]3(CC[C@H](C)CC3)S2)CC1 | 3 µM | Non-Toxic |  | inhibition (MDCK [8]): Active; Activity [9]: Toxic
31 | CC1(C)N=C(NCCN2CCCCC2)S[C@]12CC[C@@H](C)CC2 | > 100 µM | Non-Toxic |  | 
32 | CCCCOc1ccc(CN2CCN(CCNC3=NC(C)(C)[C@]4(CC[C@H](C)CC4)S3)CC2)cc1 |  |  | 3 µM | 
33 | CC1(C)N=C(NCc2ccc3cc[nH]c3c2)S[C@]12CC[C@@H](C)CC2 |  |  | > 30 µM | 
34 | CC(C)CCN1CCN(CCNC2=NC(C)(C)[C@]3(CC[C@H](C)CC3)S2)CC1 | 10 µM | Non-Toxic |  | inhibition (MDCK [8]): Active; Activity [9]: Toxic
35 | CC1(C)N=C(NCc2cccs2)S[C@]12CC[C@@H](C)CC2 |  |  | 30 µM | 
36 | COc1ccc(CNC2=NC(C)(C)[C@]3(CC[C@H](C)CC3)S2)cc1Cl |  |  | > 30 µM | 
37 | CC1(C)N=C(NCCN2CCN(S(=O)(=O)c3ccccc3)CC2)S[C@]12CC[C@@H](C)CC2 | 18 µM | Non-Toxic |  | 
38 | CN(C)CCN1CCN(CCNC2=NC(C)(C)[C@]3(CC[C@H](C)CC3)S2)CC1 | 70 µM | Non-Toxic |  | inhibition (MDCK [8]): Active
39 | COc1ccc(CNC2=NC(C)(C)[C@]3(CC[C@H](C)CC3)S2)c(OC)c1 | > 30 µM |  | 100 µM | 
40 | CN1CCC(CNC2=NC(C)(C)[C@]3(CC[C@H](C)CC3)S2)CC1 | 10 µM | Non-Toxic |  | 
41 | CC1(C)N=C(NC(=O)c2ccccc2)S[C@]12CC[C@@H](C)CC2 |  |  | 10 µM | 
42 | CC(=O)N1CCN(CCNC2=NC(C)(C)[C@]3(CC[C@H](C)CC3)S2)CC1 | 26 µM | Non-Toxic |  | 
43 | CCCCCCCCN1CCN(CCNC2=NC(C)(C)[C@]3(CC[C@H](C)CC3)S2)CC1 | 10 µM | Non-Toxic |  | inhibition (MDCK [8]): Active
44 | CC1(C)N=C(NCc2ccccc2F)S[C@]12CC[C@@H](C)CC2 |  |  | 10 µM | 
45 | CC1(C)N=C(NCCc2ccccn2)S[C@]12CC[C@@H](C)CC2 | 3 µM | Non-Toxic |  | 
46 | CC1(C)N=C(NCc2ccccc2O)S[C@]12CC[C@@H](C)CC2 | 10 µM |  | 100 µM | 

Row | Compound | EC50 [1] | Activity [6] | IC50 at 44 h [7] | other results
47 | CC1(C)N=C(NCCn2ccnc2)S[C@]12CC[C@@H](C)CC2 | > 100 µM | Non-Toxic |  | 
48 | CC1(C)N=C(N2CCOCC2)S[C@]12CC[C@@H](C)CC2 | 0.7 µM | Non-Toxic |  | 
49 | CC1(C)N=C(NS(=O)(=O)c2ccccc2)S[C@]12CC[C@@H](C)CC2 |  |  | 30 µM | 
50 | COc1cc(F)ccc1CNC1=NC(C)(C)[C@]2(CC[C@H](C)CC2)S1 |  |  | > 30 µM | 
51 | CC1(C)N=C(NCCN2CCN(S(C)(=O)=O)CC2)S[C@]12CC[C@@H](C)CC2 |  | Non-Toxic |  | 
52 | Cc1cnc(CN2CCN(CCNC3=NC(C)(C)[C@]4(CC[C@H](C)CC4)S3)CC2)cn1 | 20 µM |  | 100 µM | 
53 | CC1(C)N=C(N)S[C@]12CC[C@@H](C)CC2 | 0.03 µM | Non-Toxic |  | Activity (MDCK [2]): Active; Activity [3]: Non-Toxic; EC50 [4]: 0.02 µM
54 | CC1(C)N=C(NCc2cccc(F)c2)S[C@]12CC[C@@H](C)CC2 |  |  | 10 µM | 
55 | CC1(C)N=C(NCc2ccccn2)S[C@]12CC[C@@H](C)CC2 | 10 µM | Non-Toxic |  | 
56 | COCCNC1=NC(C)(C)[C@]2(CC[C@H](C)CC2)S1 |  | Non-Toxic |  | 
57 | CC1(C)N=C(NCc2cccnc2)S[C@]12CC[C@@H](C)CC2 | 5 µM | Non-Toxic |  | 
58 | CC1(C)N=C(NCc2ccc(O)c(F)c2)S[C@]12CC[C@@H](C)CC2 | 10 µM |  | > 30 µM | 
59 | CC1(C)N=C(NCC2CCNCC2)S[C@]12CC[C@@H](C)CC2 | > 100 µM | Non-Toxic |  | 
60 | CC1(C)N=C(NCCN2CCNCC2)S[C@]12CC[C@@H](C)CC2 | 2.6 µM | Non-Toxic |  | 
61 | CC1(C)N=C(NCCNc2ccccc2)S[C@]12CC[C@@H](C)CC2 |  |  | 10 µM | 
62 | CC(C)(C)OC(=O)N1CCN(CCNC2=NC(C)(C)[C@]3(CC[C@H](C)CC3)S2)CC1 |  |  | > 30 µM | 
63 | CC1(C)N=C(NCc2ccc(C#N)cc2)S[C@]12CC[C@@H](C)CC2 |  |  | 100 µM | 
64 | CCOCCN1CCN(CCNC2=NC(C)(C)[C@]3(CC[C@H](C)CC3)S2)CC1 | 2.1 µM | Non-Toxic |  | inhibition (MDCK [8]): Active
65 | COc1ccc(CNC2=NC(C)(C)[C@]3(CC[C@H](C)CC3)S2)cc1 |  |  | 30 µM | 
66 | CC1(C)N=C(N2CCNCC2)S[C@]12CC[C@@H](C)CC2 | > 100 µM | Non-Toxic |  | 
67 | Cc1cccnc1NCCNC1=NC(C)(C)[C@]2(CC[C@H](C)CC2)S1 |  |  | 100 µM | 
